Data as given in patent US8399465B2, “Compounds with two fused bicyclic heteroaryl moieties as modulators of leukotriene A4 hydrolase” (Janssen Pharmaceutica NV, priority 2009, dated 2013).
Where a name gives a salt, the structure may show the parent alone.

What follows are molecules tested against T1, recombinant human LTA4 hydrolase (rhLTA4H) (Homo sapiens, UniProt P09960) (assay: Recombinant human LTA4 hydrolase assay for LTA4 hydrolase inhibitor activity). Conditions: not given.
T1 construct: made in house; host or cells: Spodoptera frugiperda (Sf-9) cells, baculovirus (pFastBac1)
T1 sequence (P09960 1-611): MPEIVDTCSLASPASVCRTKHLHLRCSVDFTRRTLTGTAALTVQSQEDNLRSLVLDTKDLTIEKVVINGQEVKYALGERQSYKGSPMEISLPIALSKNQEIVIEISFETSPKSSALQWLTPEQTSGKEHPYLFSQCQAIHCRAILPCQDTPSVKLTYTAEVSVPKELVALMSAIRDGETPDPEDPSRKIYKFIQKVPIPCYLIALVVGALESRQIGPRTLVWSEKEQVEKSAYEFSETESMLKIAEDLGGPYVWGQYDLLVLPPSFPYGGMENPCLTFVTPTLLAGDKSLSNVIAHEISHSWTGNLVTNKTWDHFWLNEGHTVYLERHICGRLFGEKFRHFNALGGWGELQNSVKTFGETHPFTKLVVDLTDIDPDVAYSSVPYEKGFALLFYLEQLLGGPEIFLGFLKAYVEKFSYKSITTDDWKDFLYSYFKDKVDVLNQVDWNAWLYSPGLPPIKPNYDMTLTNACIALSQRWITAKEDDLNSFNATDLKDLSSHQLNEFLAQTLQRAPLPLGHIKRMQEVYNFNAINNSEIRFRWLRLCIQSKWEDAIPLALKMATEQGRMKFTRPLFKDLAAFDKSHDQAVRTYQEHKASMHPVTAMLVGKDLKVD
Type: biochemical
Experimental: Assay 1: Recombinant Human LTA4 Hydrolase Assay for LTA4 Hydrolase Inhibitor Activity
Compounds of the present invention were tested for LTA4 hydrolase inhibitor activity against recombinant human LTA4 hydrolase (rhLTA4H). Vectors were prepared and used to express rhLTA4H essentially as follows: LTA4 hydrolase encoding DNA was amplified by polymerase chain reaction (PCR) using a human placental cDNA library as a template. […] The amplified 1.9 kb DNA fragment encoding LTA4 hydrolase was isolated and cloned into the pFastBac1 vector (Invitrogen). Recombinant baculovirus was generated as described by the manufacturer, and used to infect Spodoptera frugiperda (Sf-9) cells. […] The purified enzyme solution was adjusted to contain 0.29 mg/mL LTA4 hydrolase, 50 mM Tris (pH 8.0), 150 mM NaCl, 5 mM dithiothreitol, 50% glycerol, and EDTA-free Complete protease inhibitor cocktail (Roche).
LTA4 substrate was prepared from the methyl ester of LTA4 (Cayman Chemical) by treatment with 67 equiv of NaOH under nitrogen at rt for 40 min. The LTA4 substrate in its free acid form was kept frozen at −80° C. until needed. Each compound was diluted to different concentrations in assay buffer (from Assay Designs) containing 10% DMSO. A 25-μL aliquot of each compound dilution was incubated for 10 min at rt with an equal volume of assay buffer containing 10 ng of recombinant human LTA4H. The solution was then adjusted to 200 μL with assay buffer. […] Each reaction was carried out at rt for 30 min. The reaction was stopped by diluting 10 μL of the reaction mixture with 200 μL of assay buffer. LTB4 was quantified in the diluted sample by a commercially available enzyme-linked immunoassay (Cayman Chemical Co.), as recommended by the manufacturer. Positive controls, under essentially identical conditions but without addition of an inhibitor compound, and negative controls, containing all assay components except enzyme, were routinely run in each experiment. IC50 values were determined by nonlinear regression of the activity data at different compound concentrations using Graphpad Prism 4.0, one site binding competition.
The values presented here are the result of a single determination or an average of two or more determinations. Compounds that were not tested are indicated as such by a “NT” designation.

SMILES | IC50 [nM]
CC(=O)N1C[C@@H]2C[C@H]1CN2Cc1cc2cc(Oc3nc4cnccc4s3)ccc2o1 [Example 199, (1S,4S)-1-{5-[5-(Thiazolo[4,5-c]pyridin-2-yloxy)-benzofuran-2-ylmethyl]-2,5-diaza-bicyclo[2.2.1]hept-2-yl}-ethanone formate] | 338

Same assay, conditions: rhLTA4H, LTB4 by immunoassay; single determination or average of two or more; mark after value = form tested: ′ free base, ″ hydrochloride, ^ formate; read-out: IC50

SMILES | IC50 [nM]
CC(=O)N1C[C@H]2CC[C@@H](C1)N2Cc1cc2cc(Oc3nc4cccnc4s3)ccc2o1 [Example 123, meso-1-{8-[5-(Thiazolo[5,4-b]pyridin-2-yloxy)-benzofuran-2-ylmethyl]-3,8-diaza-bicyclo[3.2.1]oct-3-yl}-ethanone] | 89
CC(=O)N1C[C@H]2CC[C@@H](C1)N2Cc1cc2ccc(Oc3nc4cccnc4s3)cc2o1 [Example 124, meso-1-{8-[6-(Thiazolo[5,4-b]pyridin-2-yloxy)-benzofuran-2-ylmethyl]-3,8-diaza-bicyclo[3.2.1]oct-3-yl}-ethanone] | 1470
CC(=O)N[C@H]1C[C@H]2CC[C@@H](C1)N2Cc1cc2cc(Oc3nc4cccnc4s3)ccc2o1 [Example 125, meso-endo-N-{8-[5-(Thiazolo[5,4-b]pyridin-2-yloxy)-benzofuran-2-ylmethyl]-8-aza-bicyclo[3.2.1]oct-3-yl}-acetamide] | 200
CC(=O)N[C@H]1C[C@H]2CC[C@@H](C1)N2Cc1cc2ccc(Oc3nc4cccnc4s3)cc2o1 [Example 126, meso-endo-N-{8-[6-(Thiazolo[5,4-b]pyridin-2-yloxy)-benzofuran-2-ylmethyl]-8-aza-bicyclo[3.2.1]oct-3-yl}-acetamide] | 610
NC(=O)NC1CCN(Cc2cc3ccc(Oc4nc5ncccc5s4)cc3o2)C1 (stereo not drawn) [Example 127, 1-(1-{[6-([1,3]Thiazolo[4,5-b]pyridin-2-yloxy)-1-benzofuran-2-yl]methyl}pyrrolidin-3-yl)urea formate] | 62
CS(=O)(=O)NC1CCN(Cc2cc3ccc(Oc4nc5ncccc5s4)cc3o2)C1 (stereo not drawn) [Example 128, N-(1-{[6-([1,3]thiazolo[4,5-b]pyridin-2-yloxy)-1-benzofuran-2-yl]methyl}pyrrolidin-3-yl)methanesulfonamide formate] | 84
CC(=O)N1C[C@H]2CC[C@@H](C1)N2CCc1coc2cc(Oc3nc4ncccc4s3)ccc12 [Example 130, meso-1-(8-{2-[6-(Thiazolo[4,5-b]pyridin-2-yloxy)-benzofuran-3-yl]-ethyl}-3,8-diaza-bicyclo[3.2.1]oct-3-yl)-ethanone] | 5
CC(=O)N[C@H]1C[C@H]2CC[C@@H](C1)N2CCc1coc2cc(Oc3nc4ncccc4s3)ccc12 [Example 131, meso-endo-N-(8-{2-[6-(Thiazolo[4,5-b]pyridin-2-yloxy)-benzofuran-3-yl]-ethyl}-8-aza-bicyclo[3.2.1]oct-3-yl)acetamide] | 5
NC(=O)N1C[C@H]2CC[C@@H](C1)N2Cc1cc2cc(Oc3nc4ccccc4s3)ccc2o1 [Example 173, meso-8-[5-(Benzothiazol-2-yloxy)-benzofuran-2-ylmethyl]-3,8-diaza-bicyclo[3.2.1]octane-3-carboxylic acid amide] | 187
CC(=O)N[C@H]1C[C@H]2CC[C@@H](C1)N2Cc1cc2cc(Oc3nc4cnccc4s3)ccc2o1 [Example 200, meso-endo-N-{8-[5-(Thiazolo[4,5-c]pyridin-2-yloxy)-benzofuran-2-ylmethyl]-8-aza-bicyclo[3.2.1]oct-3-yl}-acetamide formate] | 1130
CC(=O)N[C@H]1C[C@H]2CC[C@@H](C1)N2Cc1cc2ccc(Oc3nc4cnccc4s3)cc2o1 [Example 201, meso-endo-N-{8-[6-(Thiazolo[4,5-c]pyridin-2-yloxy)-benzofuran-2-ylmethyl]-8-aza-bicyclo[3.2.1]oct-3-yl}-acetamide] | 236

Continued, values first:

IC50 [nM] | SMILES
720 | c1ccc2sc(Oc3ccc4cc(CN5CCCCC5)sc4c3)nc2c1 [Example 132, 2-(2-Piperidin-1-ylmethyl-benzo[b]thiophen-6-yloxy)-benzothiazole]
473 | c1ccc2sc(Oc3ccc4cc(CN5CCOCC5)sc4c3)nc2c1 [Example 133, (2-Morpholin-4-ylmethyl-benzo[b]thiophen-6-yloxy)-benzothiazole]
117 | c1cnc2nc(Oc3ccc4cc(CN5CCCCC5)sc4c3)sc2c1 [Example 136, 2-(2-Piperidin-1-ylmethyl-benzo[b]thiophen-6-yloxy)-thiazolo[4,5-b]pyridine]
169 | NC(=O)C1CCN(Cc2cc3ccc(Oc4nc5ncccc5s4)cc3s2)CC1 [Example 138, 1-[6-(Thiazolo[4,5-b]pyridin-2-yloxy)-benzo[b]thiophen-2-ylmethyl]-piperidine-4-carboxylic acid amide]
170 | CCOC(=O)C1CCN(CCc2coc3cc(Oc4nc5ccccc5s4)ccc23)CC1 [Example 149, 1-{2-[6-(Benzothiazol-2-yloxy)-benzofuran-3-yl]-ethyl}-piperidine-4-carboxylic acid ethyl ester]
107 | FC(F)(F)C1CCN(Cc2coc3cc(Oc4nc5ncccc5s4)ccc23)CC1 [Example 163, 2-[3-(4-Trifluoromethyl-piperidin-1-ylmethyl)-benzofuran-6-yloxy]-thiazolo[4,5-b]pyridine]
286 | CC(=O)N1CCCC2(CCN(Cc3cc4cc(Oc5nc6ncccc6s5)ccc4o3)C2)C1 (stereo not drawn) [Example 166, 1-{2-[5-(Thiazolo[4,5-b]pyridin-2-yloxy)-benzofuran-2-ylmethyl]-2,7-diaza-spiro[4.5]dec-7-yl}-ethanone]
116 | FC1CCN(Cc2cc3ccc(Oc4nc5ncccc5s4)cc3o2)CC1 [Example 190, 2-[2-(4-Fluoro-piperidin-1-ylmethyl)-benzofuran-6-yloxy]-thiazolo[4,5-b]pyridine formate]
2570 | CC(=O)N1C[C@@H]2C[C@H]1CN2Cc1cc2ccc(Oc3nc4cnccc4s3)cc2o1 [Example 203, (1S,4S)-1-{5-[6-(Thiazolo[4,5-c]pyridin-2-yloxy)-benzofuran-2-ylmethyl]-2,5-diaza-bicyclo[2.2.1]hept-2-yl}-ethanone]
169 | CNC(=O)C1CCN(Cc2cc3ccc(Oc4nc5ncccc5s4)cc3o2)CC1 [Example 204, 1-[6-(Thiazolo[4,5-b]pyridin-2-yloxy)-benzofuran-2-ylmethyl]-piperidine-4-carboxylic acid methylamide]
120 | O=C(C1CCN(Cc2cc3ccc(Oc4nc5ncccc5s4)cc3o2)CC1)N1CCCC1 [Example 205, Pyrrolidin-1-yl-{1-[6-(thiazolo[4,5-b]pyridin-2-yloxy)-benzofuran-2-ylmethyl]-piperidin-4-yl}-methanone]
227 | CC(=O)N1C[C@@H]2C[C@H]1CN2Cc1coc2cc(Oc3nc4cccnc4s3)ccc12 [Example 221, (1S,4S)-1-{5-[6-(Thiazolo[5,4-b]pyridin-2-yloxy)-benzofuran-3-ylmethyl]-2,5-diaza-bicyclo[2.2.1]hept-2-yl}-ethanone]
365 | CC(=O)N1C[C@@H]2C[C@H]1CN2Cc1coc2cc(Oc3nc4cnccc4s3)ccc12 [Example 222, (1S,4S)-1-{5-[6-(Thiazolo[4,5-c]pyridin-2-yloxy)-benzofuran-3-ylmethyl]-2,5-diaza-bicyclo[2.2.1]hept-2-yl}-ethanone]
175 | CCOC(=O)C1CCN(Cc2coc3cc(Oc4nc5ccccc5s4)ccc23)CC1 [Example 223, 1-[6-(Benzothiazol-2-yloxy)-benzofuran-3-ylmethyl]-piperidine-4-carboxylic acid ethyl ester]
765 | CC(C)(C)OC(=O)C1CCN(Cc2cc3ccc(Oc4nc5ncccc5s4)cc3o2)CC1 [Example 225, 1-[6-(Thiazolo[4,5-b]pyridin-2-yloxy)-benzofuran-2-ylmethyl]-piperidine-4-carboxylic acid tert-butyl ester]
